Tests used:
mTOR1/4E-BP1/AKT1 axis = test: XL388-induced mTOR inhibition during hMSCs-osteoblast differentiation (qPCR, western blot); format: cell-based, human
Protocol: hMSCs were differentiated into osteoblasts with/without […] XL388 or 0.1 μg ml^−1 HKUOT-S2 treatments for 7 days with medium replenishments every 3 days. The collected cell pellets were processed for qPCR and western blot analyses to establish the mechanism by which HKUOT-S2 promotes osteogenesis and new bone formation. The lists of all the genes and corresponding primer pairs as well as primary and secondary antibodies used for qPCR and western blot analyses are listed in Tables 6, 7 and 8.

hMSCs = hMSCs to osteoblast differentiation; format: cell-based, human
Protocol: The hMSCs and MC3T3-1E cell lines were seeded at 2.5×10^4 cells/well and 2.5×10^3 cells/well of 6-well plate respectively, containing 2 ml of normal cell culture media. The cell culture media were then replaced with osteogenic media containing 100 nM Dex, 10 mM β-Gly and 0.28 mM Asc with or without the HKUOT-S2 protein. The cells were maintained in the osteogenic media for 14 days with media replacement every 3 days. The nondifferentiated cells maintained in the normal cell culture media were used as controls. The cell pellets were then collected and processed for osteogenic gene expression analysis by qPCR at the experimental endpoints.
High Quality Total RNAs, with OD260/OD280 Between 1.98-2.00, were extracted from the in vitro experimented cell lines and the tissues harvested from the in vivo experiments using RNAiso plus reagent (Cat #9109) according to the manufacturer's protocol. The quality and quantity of the extracted RNAs were determined using the NanoDrop One (C) UV-VIS micro-volume spectrophotometer (Thermo Scientific). Equal amount of RNAs across the experimental groups were reverse transcribed into complementary DNA (cDNA) using the PrimeScript™ RT reagent Kit (cat #RR037A, Takara) and Peltier Thermal Cycler (Cat #PTC-100, MJ Research) according to the manufacturers' instructions. Specific primer pairs, equal amount of cDNA for the various experimental groups and the PowerUp™ SYBR™ Green Master Mix (Cat #A25742, Thermo Scientific) were used to prepare the qPCR reaction mix. 10 μl of the qPCR reaction mix of the control and HKUOT-S2 treatment groups, loaded into 96-well plate (0.2 ml) were used evaluate the HKUOT-S2-induced gene expressions in the cell lines from the in vitro and the harvested tissues from the in vivo experiments using the QuantStudio 5 real-time PCR system (Thermo Scientific). The HKUOT-S2-induced differentially gene expression fold changes were calculated by 2^−ΔΔCt method after housekeeping gene normalization.

[1] = tested on: ovariectomized (OVX) mice; test: OVX-induced osteoporosis, femur μCT; format: in vivo, mouse
Protocol: A total of 32 female C57BL/6J mice at the age of 8-12 weeks old and weighing between 22-25 g were used in this study. All mice underwent dorsoventral surgical operation under anesthesia. The sham control underwent surgery without ovary removal. The ovaries were completely removed from the anterior uterine horns in the OVX group. There were four groups, namely sham control (n=8), OVX control (n=8), OVX+30 μg kg^−1 estrogen (E2, n=8), and OVX+2.18 mg kg^−1 HKUOT-S2 (n=8) treatment groups. The sham and OVX control mice were given subcutaneous of 200 μl of 1XBP. The OVX+E2 and OVX+HKUOT-S2 groups were given 200 μl E2 and HKUOT-S2 via subcutaneous and IP injections respectively. All treatments started 4 hrs after the surgery and thrice per week for 4 weeks post-surgery. Micro CT (μCT) scans were taken on day zero and biweekly post-surgery. At the experimental endpoint, all the mice in the groups were sacrificed under overdose of anesthesia, the bone tissues harvested and processed for bone histomorphometry and immunohistochemical analyses.

[2] = 250 nM XL388 alone, western blot
[3] = 0.1 μg/ml HKUOT-S2, 0.01 μg/ml SEQ ID NO: 83
[4] = femur of OVX mice, 2.18 mg/Kg HKUOT-S2, 0.5 mg/Kg SEQ ID NO: 83, n=3

Cc1c(C(=O)N2CCOc3ccc(-c4ccc(N)nc4)cc3C2)ccc(S(C)(=O)=O)c1F [XL388]
4E-BP1 expression (mTOR1/4E-BP1/AKT1 axis; 125 nM XL388 alone, qPCR): significantly suppressed
AKT1 expression (mTOR1/4E-BP1/AKT1 axis; 125 nM XL388 alone, qPCR): significantly suppressed
MTOR1 expression (mTOR1/4E-BP1/AKT1 axis; 125 nM XL388 alone, qPCR): significantly suppressed
RUNX2 expression (mTOR1/4E-BP1/AKT1 axis; 125 nM XL388 alone, qPCR): significantly suppressed
S6K1 expression (mTOR1/4E-BP1/AKT1 axis; 125 nM XL388 alone, qPCR): significantly suppressed
phosphorylation of 4E-BP1 (mTOR1/4E-BP1/AKT1 axis; [2]): prevented
phosphorylation of MTOR1 (mTOR1/4E-BP1/AKT1 axis; [2]): prevented
ALP expression (mTOR1/4E-BP1/AKT1 axis; XL388-induced mTOR inhibition): no effects

TKSSLPGQTK (HKUOT-S2 peptide) [SEQ ID NO: 83]
osteogenic effects compared to the HKUOT-S2 treatment (hMSCs): robust
ALP activities (hMSCs; [3]): significantly increased
ALP mRNA expression (hMSCs; [3]): increasing
oestrogen receptor α (ERα) mRNA expression (hMSCs; [3]): increasing
osteoblast biomineralization (hMSCs; [3]): significantly increased
COL-1A expression (hMSCs; 0.01μ gml^−1): increasing
osteoporosis suppression effects compared with the 2.18 mg/Kg HKUOT-S2 treatment group ([1]; 0.5 mg/Kg SEQ ID NO: 83, OVX mice): stronger
bone surface area to bone volume ratio (BS/BV) [1, 4]: decreased
bone surface area to tissue volume (BS/TV) ratio [1, 4]: significantly increasing
bone volume (BV/TV) [1, 4]: significantly increasing
trabecular number (Tb. N) [1, 4]: significantly increasing
trabecular separation (Tb. Sp) [1, 4]: decreased
trabecular thickness (Tb.th) [1, 4]: significantly increasing
